From paper PMC2808337, “Lactococcus lactis, an Alternative System for Functional Expression of Peripheral and Intrinsic Arabidopsis Membrane Proteins” (PLoS ONE, 2010)

Legend:
[1] = target: T1, AtAATP1 (Arabidopsis thaliana, UniProt Q39002); experiment: radioactive ATP uptake into intact L. lactis cells, filtration; assay type: cell-based; settings: 50 µM [α-32P]ATP, 50 mM potassium phosphate pH 7.0, 25 °C; empty-vector control; labelled compound
T1 construct: gene AATP1; N-terminal attB-encoded extension, C-terminal Strep-tag II; in intact Lactococcus lactis NZ9000 cells
T1 sequence (Q39002 81-624): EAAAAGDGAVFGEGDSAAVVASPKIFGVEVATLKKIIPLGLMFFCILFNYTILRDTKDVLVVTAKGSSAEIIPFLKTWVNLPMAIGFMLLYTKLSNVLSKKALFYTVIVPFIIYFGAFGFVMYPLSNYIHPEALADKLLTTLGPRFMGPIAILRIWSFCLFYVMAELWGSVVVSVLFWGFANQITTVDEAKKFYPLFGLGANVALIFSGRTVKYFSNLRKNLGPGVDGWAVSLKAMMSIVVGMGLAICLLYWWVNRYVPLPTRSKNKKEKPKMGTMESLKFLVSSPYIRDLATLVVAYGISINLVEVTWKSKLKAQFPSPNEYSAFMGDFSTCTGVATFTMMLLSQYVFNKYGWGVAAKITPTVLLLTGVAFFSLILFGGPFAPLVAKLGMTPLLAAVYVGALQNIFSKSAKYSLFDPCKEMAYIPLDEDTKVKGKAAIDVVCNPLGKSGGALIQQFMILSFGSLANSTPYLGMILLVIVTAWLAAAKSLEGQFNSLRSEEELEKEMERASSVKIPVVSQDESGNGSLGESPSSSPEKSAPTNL

[2] = target: T2, ceQORH (Arabidopsis thaliana, UniProt Q9SV68); experiment: spectrophotometric NBT reduction to formazan, […] nm; assay type: biochemical; settings: 100 µM NBT, 100 µM NADPH, soybean lipids, 10 mM Tris-HCl pH 8.0, artificial electron acceptor
T2 construct: mostly monomer, expected mass 34 kDa
T2 sequence (Q9SV68 1-329): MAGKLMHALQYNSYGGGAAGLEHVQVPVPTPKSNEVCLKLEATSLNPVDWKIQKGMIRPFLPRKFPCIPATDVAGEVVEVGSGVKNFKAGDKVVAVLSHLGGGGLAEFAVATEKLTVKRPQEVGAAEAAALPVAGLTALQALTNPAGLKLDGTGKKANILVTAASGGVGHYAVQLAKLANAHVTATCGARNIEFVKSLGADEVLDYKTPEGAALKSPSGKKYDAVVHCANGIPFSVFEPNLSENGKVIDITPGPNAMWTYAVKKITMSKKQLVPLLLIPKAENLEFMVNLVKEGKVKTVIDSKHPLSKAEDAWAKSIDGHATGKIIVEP

## Nc1ncnc2c1ncn2[C@@H]1O[C@H](COP(=O)(O)OP(=O)(O)OP(=O)(O)O)[C@@H](O)[C@H]1O [[α-32P] ATP]
[1]
  radioactive ATP uptake into intact L. lactis cells, filtration: recombinant AtAATP1 protein produced in L. lactis is able to transport ATP

## NC(=O)C1=CN([C@@H]2O[C@H](COP(=O)(O)OP(=O)(O)OC[C@H]3O[C@@H](n4cnc5c(N)ncnc54)[C@H](OP(=O)(O)O)[C@@H]3O)[C@@H](O)[C@H]2O)C=CC1 [NADPH]
[2]; electron donor
  spectrophotometric NBT reduction to formazan, 550 nm: ceQORH protein indeed has NADPH-dependent dehydrogenase activity

## COc1cc(-c2ccc(-[n+]3nc(-c4ccccc4)nn3-c3ccc([N+](=O)[O-])cc3)c(OC)c2)ccc1-[n+]1nc(-c2ccccc2)nn1-c1ccc([N+](=O)[O-])cc1 [NBT]
[2]
  spectrophotometric NBT reduction to formazan, 550 nm: the ceQORH protein, in combination with lipids and NADPH reduces the NBT to formazan
